Assay [1] concerns the target Cytochrome P450 2D6 (Homo sapiens, UniProt P10635).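 Further: CYP2D6 member of a cytochrome P450 panel assay.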
Assay [2] deals with T1, Heat shock factor protein 1 (Mus musculus, UniProt P38532).
T1 sequence (P38532 whole entry): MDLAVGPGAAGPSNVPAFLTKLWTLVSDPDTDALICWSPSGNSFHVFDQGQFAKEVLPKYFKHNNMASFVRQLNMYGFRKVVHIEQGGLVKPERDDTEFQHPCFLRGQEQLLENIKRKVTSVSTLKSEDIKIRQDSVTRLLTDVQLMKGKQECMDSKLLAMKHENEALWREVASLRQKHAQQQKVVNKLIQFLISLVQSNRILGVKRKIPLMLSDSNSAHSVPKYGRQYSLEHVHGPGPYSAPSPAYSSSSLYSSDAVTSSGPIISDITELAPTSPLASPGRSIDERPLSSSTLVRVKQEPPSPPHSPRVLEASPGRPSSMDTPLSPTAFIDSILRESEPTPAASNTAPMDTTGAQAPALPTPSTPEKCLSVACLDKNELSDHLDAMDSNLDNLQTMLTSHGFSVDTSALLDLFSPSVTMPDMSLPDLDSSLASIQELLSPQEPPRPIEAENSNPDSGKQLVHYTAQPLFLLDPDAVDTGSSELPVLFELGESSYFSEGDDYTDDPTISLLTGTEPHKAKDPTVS
The experiment in a line: HSF1 potentiators in luciferase reporter cells, confirmation, cell-based, NIH3T3, luminescence, dose retest (AID 435004).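 Further: stress induced by proteasome inhibitor MG132 added 30 min after compound; luciferase reporter driven by HSF1 response element in NIH3T3 cells; actives raise luminescence as potentiators of the MG132 stress response.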 In kind it is functional.

Assay [3] addresses Cytochrome P450 2C19 (Homo sapiens, UniProt P33261). The experiment in a line: Cytochrome panel assay with activity outcomes. Panel member name: p450-cyp2c19 Compounds with AC50 equal or less than 10 uM are considered active. Particulars: read-out: AC50. It counts as functional.
The subject of assay [4] is Streptococcus sp. 'group A'. The experiment in a line: growth inhibition of control SK(-) GAS strain, dose response, counter-screen for streptokinase expression inhibitor project, luminescence, kanamycin, BacTiterGlo, confirmation (AID 1900). In kind it is functional, organism-based. On the technique in general: A counterscreen serves to expose hits that act by an unwanted route or on another target.

Assay [5] deals with T2, Streptokinase A (Streptococcus pyogenes serotype M1, UniProt P10520).
T2 sequence (P10520 whole entry): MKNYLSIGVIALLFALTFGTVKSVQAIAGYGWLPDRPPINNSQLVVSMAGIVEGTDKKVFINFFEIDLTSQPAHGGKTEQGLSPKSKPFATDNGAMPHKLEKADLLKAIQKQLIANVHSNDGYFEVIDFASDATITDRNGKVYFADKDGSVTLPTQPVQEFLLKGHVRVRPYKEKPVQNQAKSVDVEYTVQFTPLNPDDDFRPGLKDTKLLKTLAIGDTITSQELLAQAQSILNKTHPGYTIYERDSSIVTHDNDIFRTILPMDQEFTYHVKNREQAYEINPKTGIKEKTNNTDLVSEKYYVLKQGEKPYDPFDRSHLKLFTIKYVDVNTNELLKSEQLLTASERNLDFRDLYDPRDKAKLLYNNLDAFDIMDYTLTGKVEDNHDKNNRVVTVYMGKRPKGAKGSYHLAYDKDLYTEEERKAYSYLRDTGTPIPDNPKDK
The experiment in a line: S. pyogenes streptokinase expression inhibitors, potency, dose response, plasminogen activation absorbance, OD405 (AID 1914).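 Further: secreted streptokinase activity via plasminogen activation per viability signal from cell pellet.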 In kind it is functional, Streptococcus pyogenes M1 GAS.

Assay [6] relates to Streptococcus. The experiment in a line: Group A Streptococcus viability loss, dose response, counter-screen for streptokinase expression inhibitor project, luminescence, BacTiterGlo (AID 1915).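 Further: potency for reduction of bacterial viability or growth.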 It counts as functional, organism-based.
Assay [7] in a line: inhibitors of intracellular T. cruzi replication, confirmation, NIH3T3 host cells, beta-gal luminescence (AID 2044).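 Further: intracellular parasites grown in NIH/3T3 mouse fibroblasts as host cells; luminescent beta-galactosidase reporter signal from transgenic T. cruzi replicating inside host cells; inhibitors lower the luminescence signal.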 It counts as functional, cell-based.
Assay [8] can be described thus: cytotoxicity toward NIH3T3 fibroblasts, dose response, counter-screen, cell-based, ATP luminescence, mouse fibroblasts (AID 2010).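 Further: cells exposed to compound for about 90 hours before reading.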 It counts as functional.
The target in assay [9] is T3, Cytochrome P450 1A2 (Homo sapiens, UniProt P05177).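 Further: PubChem cytochrome P450 panel assay, CYP1A2 panel member.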
T3 sequence (P05177 whole entry): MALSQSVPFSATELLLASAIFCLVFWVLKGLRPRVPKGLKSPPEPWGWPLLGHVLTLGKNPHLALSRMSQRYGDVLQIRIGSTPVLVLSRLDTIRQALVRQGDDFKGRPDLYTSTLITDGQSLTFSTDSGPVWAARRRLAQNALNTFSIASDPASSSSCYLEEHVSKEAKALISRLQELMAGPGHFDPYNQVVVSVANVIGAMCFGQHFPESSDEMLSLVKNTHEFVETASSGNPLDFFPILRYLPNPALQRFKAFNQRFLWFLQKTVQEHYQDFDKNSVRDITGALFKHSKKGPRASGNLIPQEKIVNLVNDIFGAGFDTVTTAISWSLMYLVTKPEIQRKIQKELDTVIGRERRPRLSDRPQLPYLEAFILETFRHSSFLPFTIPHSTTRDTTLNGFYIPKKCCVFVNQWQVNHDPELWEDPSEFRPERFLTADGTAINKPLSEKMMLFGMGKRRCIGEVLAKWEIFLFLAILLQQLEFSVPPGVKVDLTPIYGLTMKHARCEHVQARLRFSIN

Experimental findings from ChEMBL document CHEMBL1201862, “PubChem BioAssay data set” (2004) are described below.

Activity calls are given as the source filed them. Where only a bound is given, the exact number is not on record here.

Sequence of Cytochrome P450 2D6 (P10635 whole entry): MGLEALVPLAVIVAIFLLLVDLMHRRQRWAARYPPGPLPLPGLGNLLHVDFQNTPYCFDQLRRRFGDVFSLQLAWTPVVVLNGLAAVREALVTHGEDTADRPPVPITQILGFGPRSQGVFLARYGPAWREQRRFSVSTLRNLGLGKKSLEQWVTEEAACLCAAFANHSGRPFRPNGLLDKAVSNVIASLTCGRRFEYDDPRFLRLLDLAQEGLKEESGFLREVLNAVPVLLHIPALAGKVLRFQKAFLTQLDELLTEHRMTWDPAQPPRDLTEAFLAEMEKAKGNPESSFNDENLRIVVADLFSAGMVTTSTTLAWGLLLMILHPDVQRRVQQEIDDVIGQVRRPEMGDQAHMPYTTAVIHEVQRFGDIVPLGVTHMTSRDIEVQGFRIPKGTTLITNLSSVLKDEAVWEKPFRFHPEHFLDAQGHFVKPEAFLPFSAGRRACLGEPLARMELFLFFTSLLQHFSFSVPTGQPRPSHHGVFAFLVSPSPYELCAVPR
Sequence of Cytochrome P450 2C19 (P33261 whole entry): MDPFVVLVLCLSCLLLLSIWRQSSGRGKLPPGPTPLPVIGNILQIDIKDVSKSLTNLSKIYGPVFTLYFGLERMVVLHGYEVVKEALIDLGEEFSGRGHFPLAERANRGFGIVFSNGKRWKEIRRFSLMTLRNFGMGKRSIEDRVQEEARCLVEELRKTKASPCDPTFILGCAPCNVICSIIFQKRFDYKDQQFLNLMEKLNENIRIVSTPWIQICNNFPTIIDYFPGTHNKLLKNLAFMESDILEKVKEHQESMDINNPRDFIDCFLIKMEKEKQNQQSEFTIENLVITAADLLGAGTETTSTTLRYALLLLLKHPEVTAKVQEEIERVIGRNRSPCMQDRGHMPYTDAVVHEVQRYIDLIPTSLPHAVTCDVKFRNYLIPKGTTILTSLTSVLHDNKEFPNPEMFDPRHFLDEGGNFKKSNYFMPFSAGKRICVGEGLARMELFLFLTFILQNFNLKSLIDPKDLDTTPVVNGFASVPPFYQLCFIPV

A word on the AC50: it is the concentration at which the activity in the assay is half-maximal. Regarding `COC(=O)/C(=C\C(=O)c1ccccc1)Nc1cccc(C(F)(F)F)c1`, the AC50 in assay [1] was 25.1 µM (inconclusive).

Broadly, the EC50 is the midpoint of the concentration-response curve. As for `Nc1ccccc1Nc1ccc([N+](=O)[O-])cc1[N+](=O)[O-]`, in [2], the EC50 is > 260 µM (inactive). On the same count and under the same terms, as for `Cc1ccc(/N=C2\SC(C(=O)NCCc3ccccc3)CC(=O)N2C)cc1C` (stereo not given), the figure is > 260 µM (inactive); as for `CCOc1ccc(N2CC(=O)C(c3nc(O)c4ccccc4n3)=C2N)cc1`, > 260 µM (inactive). Turning to `CN(C)c1ncc2nc(CCc3ccccc3)c(=O)n(-c3ccccc3)c2n1`, the AC50 is 39.8 µM (inconclusive) in assay [3] and 2.51 µM (inconclusive) in [1]. Consider `Oc1nc(CSc2ncnc3sccc23)nc2ccccc12`, for which the EC50 was 0.734 µM (active) in assay [4], > 150 µM (not active) in assay [5] and 14.3 µM (active) in assay [6].

Turning to `CCOC(=O)c1cc(C#N)c(SCc2ccc(C#N)cc2)nc1C`, in assay [2], the EC50 was 41.9 µM (active). Consider `Cc1ccn2c(C(=O)N/N=C\c3ccccc3[N+](=O)[O-])c(C)nc2c1`, for which the EC50 in [2] was > 260 µM (inactive).

On to `Cc1ccccc1CC(=O)NC1CCCc2ccccc21` (stereo not given), for which the EC50 in assay [2] is > 260 µM (inactive). On to `Cc1ccc(NC(S)=Nc2nc(CC(=O)Nc3ccccc3)cs2)cc1`, for which the AC50 in assay [1] was 1.78 µM (inconclusive).

Take `COc1ccc(/C=N/n2c(C)nc3c4ccccc4nc-3c2O)cc1CN1CCCC(C)(C)C1`: the values for the EC50 in assay [4], in assay [5] and in assay [6] were 10.9 µM (active), > 150 µM (not active) and > 150 µM (not active), respectively. For `Cn1c(C[C@@H](O)c2nc3ccccc3n2C)nc2ccccc21`, the AC50 in assay [1] is 2.51 µM (inconclusive). On to `CCCCCCCCCCCCCC(=O)O[C@H](CC(=O)[O-])C[N+](C)(C)C`, for which the AC50 in assay [1] is 31.6 µM (inconclusive). Turning to `CC(C)(C)NC(=O)c1ccc2c3c(cccc13)CC2`, the EC50 in [2] was > 260 µM (inactive). Regarding `CC[N+](CC)(CCNC(=O)C(=O)NCC[N+](CC)(CC)Cc1ccccc1Cl)Cc1ccccc1Cl` [AMBENONIUM], in assay [1], the AC50 is 39.8 µM (inconclusive). For `COC(=O)c1ccc(C23CC2(C(NP(=O)(c2ccccc2)c2ccccc2)c2ccccc2)C3)cc1` (stereo not given), the half-maximal activity concentration (AC50) in assay [1] is 31.6 µM (inconclusive).

As for `COc1cccc(-c2ccc3ncnc(NC4CC4)c3c2)c1`, the concentration at half-maximal activity (AC50) in [1] was 25.1 µM (inconclusive). Take `Cc1ccc(CN(C(=O)c2ccco2)C2CCS(=O)(=O)C2)cc1` (stereo not given): the EC50 in assay [4], in assay [5] and in assay [6] was > 150 µM (not active) throughout. Consider `COc1ccc(S(=O)(=O)n2nc(OC(=O)c3ccccc3Br)cc2N)cc1`, for which the EC50 in assay [2] is 18.2 µM (active). Consider `CCCCC#Cc1ccccc1CC(=O)Nc1ccccc1`, for which, in [1], the concentration at half-maximal activity (AC50) is 12.6 µM (inconclusive).

For the molecule `CC(C)(C)c1nc(NC(=O)Nc2ccccc2)sc1Br`, the EC50 was 4.45 µM (active) in assay [4]; > 50 µM (not active) in assay [5]; 4.22 µM (active) in [7]; > 60 µM (not active) in assay [8]; 6.77 µM (active) in assay [6]. Turning to `O=C(O)COc1ccc(/C=N/Nc2nc(Nc3ccccc3)nc(N3CCCCC3)n2)cc1`, the values for the EC50 in [4], in [5] and in assay [6] were 18.2 µM (active), > 150 µM (not active) and 16.7 µM (active), respectively.

As to `CC(=O)N1CCC2(CCN(Cc3ccccc3)CC2)CC1`, the AC50 in assay [1] is 15.8 µM (inconclusive). For the molecule `O=[N+]([O-])c1cccc(/C=N/Nc2nc(N3CCCCC3)nc(N3CCCCC3)n2)c1`, the EC50 was 33.5 µM (active) in assay [4], 39.4 µM (active) in assay [5] and > 150 µM (not active) in assay [6]. Regarding `COc1cc(C2CC(c3cccnc3)=NN2c2ccc(F)cc2)cc(OC)c1OC` (stereo not given), the concentration giving a half-maximal response (EC50) in [2] is 48.5 µM (active).

Regarding `Cc1noc(C)c1-c1nccc(NCc2cccnc2)n1`, the AC50 in [1] is 20 µM (inconclusive). As to `COc1ccc(CN(CC2CCC(C(=O)O)CC2)C(S)=Nc2cc(Cl)ccc2OC)cc1` (stereo not given), in [2], the EC50 is > 260 µM (inactive). Turning to `O=C(NC1CCCN(Cc2ccccc2F)C1)c1cccs1` (stereo not given), the EC50 in [2] is > 260 µM (inactive). For the molecule `CC(=O)c1cccc(NC(=O)/C(=C\c2ccco2)NC(=O)c2cccs2)c1`, the AC50 was 11.2 µM (inconclusive) in assay [3], 14.1 µM (inconclusive) in assay [1] and 14.1 µM (inconclusive) in assay [9]. With `CC1CCN(c2nc(-c3ccccc3)cc(C(F)(F)F)n2)CC1`, the values for the EC50 in [4], in assay [5] and in [6] were 3.73 µM (active), 9.36 µM (inconclusive) and 9.37 µM (active), respectively. `CCn1c(=O)c(C(=O)NNC(=O)c2ccccc2)c(O)c2ccccc21`: the EC50 in assay [4] is 7.44 µM (active); in assay [5], > 150 µM (not active); in assay [6] it was 20.9 µM (active).

In the case of `Cc1cnc(CNc2ncnc3ccc(-c4ccccc4C)cc23)cn1`, the AC50 in [1] is 20 µM (inconclusive). As for `O=C(O)CSc1c(-c2ccccc2)[nH]c2ccccc12`, the EC50 in assay [2] is > 260 µM (inactive). Turning to `CN(CC1CCCO1)S(=O)(=O)c1ccc(C(=O)Nc2ccc(F)cc2)cc1` (stereo not given), the EC50 in [4], in assay [5] and in [6] was > 150 µM (not active) in each case. Take `Cc1ccc(CC2S/C(=N\c3ccccc3)N(c3ccccc3)C2=O)cc1` (stereo not given): the EC50 in [2] was > 260 µM (inactive). As for `COc1cc2[nH]c(=S)n(Cc3ccco3)c(=O)c2cc1OC`, the EC50 in [2] is > 260 µM (inactive). For the molecule `COc1cc(/C=C2/SC(=S)N(Cc3ccccc3)C2=O)ccc1O`, the figures for the EC50 in assay [4], in assay [5] and in assay [6] were 3.89 µM (active), > 150 µM (not active) and 7.59 µM (active), respectively.

As to `COC(=O)c1c(C)[nH]c(C(=O)OCC(=O)N(CC(C)C)c2c(N)n(Cc3ccccc3)c(=O)[nH]c2=O)c1C`, the EC50 in assay [4] was 5.83 µM (active); in [5] it was > 150 µM (not active); in assay [6] it was > 150 µM (not active).
